These results are taken from patent publication US20090209491A1, “Lactams as conformationally constrained peptidomimetic inhibitors” (Trustees of Tufts College, priority 2004, published 2009).

The test deals with DPIV (Homo sapiens, UniProt P27487). The test is described as follows: DPIV Inhibition Assay. The test is classed as biochemical. As to conditions: pH 8; substrate L-alanyl-L-proline-para-nitroanilide; inhibitor stood in pH 8 buffer overnight; absorbance 410 nm. As to the method: The inhibitor solution was prepared by dissolving 3-5 mg of inhibitor in pH 2 solution (0.01 N HCl), such that the concentration of the solution was equal to 1 mg/10 μL. A 10 μL sample of this solution was then added to 990 μL of pH 8 buffer (0.1 M HEPES, 0.14 M NaCl), and the solution was allowed to stand at room temperature overnight.
DPIV, sequence (P27487 whole entry): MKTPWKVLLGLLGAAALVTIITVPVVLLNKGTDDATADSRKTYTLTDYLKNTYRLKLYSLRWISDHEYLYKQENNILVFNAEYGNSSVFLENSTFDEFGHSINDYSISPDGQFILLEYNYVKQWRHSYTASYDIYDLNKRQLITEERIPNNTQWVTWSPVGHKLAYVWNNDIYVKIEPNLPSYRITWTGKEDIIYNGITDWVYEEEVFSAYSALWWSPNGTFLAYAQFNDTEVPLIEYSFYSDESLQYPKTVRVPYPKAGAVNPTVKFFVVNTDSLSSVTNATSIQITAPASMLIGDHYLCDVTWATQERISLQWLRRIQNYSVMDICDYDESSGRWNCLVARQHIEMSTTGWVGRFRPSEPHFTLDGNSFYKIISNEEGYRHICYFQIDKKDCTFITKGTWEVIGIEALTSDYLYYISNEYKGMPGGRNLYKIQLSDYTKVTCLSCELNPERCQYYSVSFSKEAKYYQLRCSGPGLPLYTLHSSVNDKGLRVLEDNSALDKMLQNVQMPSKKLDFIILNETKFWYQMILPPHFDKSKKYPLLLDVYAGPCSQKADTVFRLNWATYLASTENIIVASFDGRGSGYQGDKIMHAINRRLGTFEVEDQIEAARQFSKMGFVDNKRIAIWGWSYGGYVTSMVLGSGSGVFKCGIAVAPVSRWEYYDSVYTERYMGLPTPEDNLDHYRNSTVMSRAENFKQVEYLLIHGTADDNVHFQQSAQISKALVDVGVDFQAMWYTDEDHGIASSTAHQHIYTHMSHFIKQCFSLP
The enzyme solution was prepared by diluting 20 μL of DPIV (concentration 2.5 μM) into 40 mL of pH 8 buffer.
The substrate solution was prepared by dissolving 2.0 mg of L-alanyl-L-proline-para-nitroanilide into 20 mL of pH 8 buffer.
250 μL of enzyme solution was added to well #B1 to #H1, #A2 to #H2, and #A3 to #H3 of a 96 well plate, while well #Al received 250 μL of pH 8 buffer instead of enzyme solution. 90 μL of pH 8 buffer was then added to column 5 (from well #A5 to #H5).
A 1:10 dilution was then performed by adding inhibitor solution to #A5 and the solution was mixed well before transferring 10 μL of this solution from #A5 to #B5. The solution in #B5 was then mixed well before transferring 10 μL of this solution from #B5 to #C5. The solution in #C5 was then mixed well before transferring 10 μL of this solution from #C5 to #D5. The solution in #D5 was then mixed well before transferring 10 μL of this solution from #D5 to #E5. The solution in #E5 was then mixed well before transferring 10 μL of this solution from #E5 to #F5. The solution in #F5 was then mixed well before transferring 10 μL of this solution from #F5 to #G5. The solution in #G5 was then mixed well before transferring 10 μL of this solution from #G5 to #H5.
A 30 μL aliquot was then transferred from #H5 to #H3 for row H, and the contents were mixed well. The analogous procedure was repeated for rows G, F, E, D, C, B, and A sequentially. The plate was then shaken on a plate shaker for 5 minutes before allowing the plate to incubate at room temperature for an additional 5 minutes.
Once the plate had been allowed to incubate, 30 μL of substrate was added to each well except well #A1. The plate was then placed on a plate shaker for 5 minutes before allowing the plate to incubate at room temperature for 25 minutes. The absorbance was then immediately read at a wavelength of 410 nm.
As usually defined, the IC50 is the point on the concentration scale where inhibition reaches its midpoint. A low value points to greater potency in that assay. In the case of `CCCC[C@@]1(N)CCN([C@@H](C)B(O)O)C1=O` [J], it took 0.0019 µM to reach half-maximal inhibition (IC50).

For `CC(B(O)O)N1CCC(C)(N)C1=O` (stereo not drawn) [E], inhibition was half-maximal at 0.023 µM (IC50). Compared with the last molecule, the IC50 is about 12-fold higher.

The molecule `C[C@@H](B(O)O)N1CC[C@](N)(Cc2cccc3ccccc23)C1=O` [P] registered a half-maximal inhibitory concentration (IC50) of 0.0021 µM. This IC50 lies about 11-fold lower than the previous one.

In turn, `C[C@H](B(O)O)N1CCC(N)C1=O` (stereo partly drawn) [C] showed an IC50 of 0.34 µM.

`CN[C@]1(Cc2ccccc2)CCN([C@@H](C)B(O)O)C1=O` [O] registered an IC50 of 0.63 µM. This IC50 is about 1.9-fold higher than that of the molecule before.

`C[C@H](C#N)N1CCC(N)C1=O` (stereo partly drawn) [A] showed an IC50 of 11 µM.

In the case of `C[C@@H](B(O)O)N1CC[C@](N)(Cc2ccccc2)C1=O` [M], the IC50 was determined as 0.0026 µM. This IC50 is about 4200-fold lower than that of the molecule before.

Take `C[C@@H](B(O)O)N1CC[C@]2(CCCN2)C1=O` [Q]: half-maximal inhibition (IC50) was put at 0.0099 µM. This IC50 lies about 3.8-fold higher than the previous one.

The molecule `C[C@@H](B(O)O)N1CC[C@@](C)(N)C1=O` [G] gave an IC50 of 0.0067 µM.

In turn, `C[C@@H](B(O)O)N1CCC(N)C1=O` (stereo partly drawn) [B] had an IC50 of 0.04 µM. This IC50 lies about 6-fold higher than the previous one.

Molecule `CC(B(O)O)N1CCC(N)C1=O` (stereo not drawn) [D] yielded an IC50 of 0.034 µM. This IC50 and that of the molecule before are within 1.5-fold of each other.

Molecule `C[C@@H](B(O)O)N1CC[C@](C)(N)C1=O` [F] registered an IC50 of 69 µM.

Take `C[C@@H](B(O)O)N1CC[C@](N)(CC(=O)O)C1=O` [K]: the 50% inhibitory concentration (IC50) amounted to 0.036 µM.

With `CC[C@@H](B(O)O)N1CC[C@](N)(Cc2ccccc2)C1=O` [N], the IC50 turned out to be 0.003 µM.

`CC[C@H](B(O)O)N1CC[C@](N)(CC)C1=O` [Compound I] came in with an IC50 of 0.025 µM.
